Measurements: patent publication EP4741387A1, “CRYSTAL FORM OF BIPYRIMIDINE COMPOUND, PREPARATION METHOD THEREFOR AND USE THEREOF” (Jiangsu Yahong Meditech Co., Ltd., priority 2023, dated 2025)
Converted amounts (≈) assume the structure as drawn. Marks after values point to notes of the source that are not given here.

What was measured:
[1] = Solubility study of crystal form I; format: physicochemical; conditions: for solubility: thermodynamic from solid
Experimental: (§1) The HPLC for solubility and stability is carried out using a Phenomenex Luna C18 (2), 3 µm, 2X50 mm chromatographic column.
50 µL or 100 µL of the solvent shown in Table 6 was gradually added to 2 mg of crystal form I, and the resulting mixture was manually shaken, vortexed, or sonicated to dissolve. Addition of solvent was stopped if the concentration was below 1 mg/mL. The solubility was calculated based on the sample amount and the total amount of solvent added.

[2] = Dynamic vapor sorption (DVS); format: physicochemical
[3] = Stability to forced degradation (oxidative and alkali); format: physicochemical; conditions: 1 mg/mL in 90% acetonitrile
Experimental: as §1
3 mg of crystal form I was weighed to formulate a stock solution of 1 mg/mL with 3 mL of 90% acetonitrile. Stability subjected to oxidative degradation (degraded with 3% H2O2 at 40°C for 1.5 hours) and alkali degradation (degraded with 0.1 N NaOH at 40°C for 2 hours) was studied.

[4] = Stability subjected to temperature and humidity (LC analysis); format: physicochemical; conditions: solid powder, 30 days
Experimental: as §1
1 to 3 mg of crystal form I solid powder was weighed, and placed at 60°C or 60°C / 75% RH for 30 days. Samples were collected for LC study and analysis.

[5] = Stability subjected to temperature and humidity (XRPD of crystal form); format: physicochemical; conditions: solid powder, 30 days
Experimental: The instrument is Shimadzu XRD-6000, and the samples are scanned according to the following parameters: The ray source is Cu~Kα target (1.54056 Å).
In addition, an appropriate amount of crystal form I solid powder was weighed, and placed under stability conditions (40°C / 75% RH, 60°C / 75% RH) for 30 days. Samples were collected for XRPD.

[6] = Stability subjected to light (LC analysis); format: physicochemical
Experimental: as §1
An appropriate amount of crystal form I solid powder was weighed, and placed in a light-stabilized chamber to irradiate under ICH light intensity conditions (at least greater than 1.2*10^6 Lux*h, illuminance of 4500±500 Lux, and intensity of 200 w*hr/m^2). Samples were collected for LC study and analysis.

[7] = Trituration study of crystal form I (XRPD); format: physicochemical; conditions: manual trituration 1 min or 3 min, without solvent, with water or ethanol
Experimental: Approximately 50 mg of crystal form I was manually triturated in a mortar using the condition shown in Table 5, and XRPD was carried out to investigate the crystal form of the triturated solid.

[8] = Pharmacokinetic study of intragastric administration of suspension; format: in vivo; conditions: male SD rats, result in words
Experimental: Crystal form I was used in pharmacokinetic studies in rats. Twelve male SD rats were weighed before administration, and housed using standard feeding methods. Animals were housed in standard cages with free access to food and water during the study. Rats were intragastrically administered the suspension of crystal form I. 40 µL of blood was collected at each sampling point, and placed in an EDTA-containing anticoagulant tube. After centrifugation, 20 µL of plasma was collected. All samples were immediately frozen in a -80°C refrigerator after collection.

[9] = Solubility study of crystal form I; format: physicochemical; conditions: pH 7.4 phosphate buffer (37°C for 24 hours)

COc1cnc(-c2c(OC)ncnc2C2CC2)nc1NCC12CCC(c3nc(C(F)(F)F)cn3C)(CC1)CC2 [crystal form I, 4'-cyclopropyl-5,6'-dimethoxy-N-((4-(1-methyl-4-(trifluoromethyl)-1H-imidazol-2-yl)bicyclo[2.2.2]octan-1-yl)methyl)-[2,5'-bipyrimidin]-4-amine]
solubility ([1]; acetone, organic solvent or mixture): > 34.4 mg/mL | solubility ([1]; acetonitrile, organic solvent or mixture): 14.2 to 28.4 mg/mL (≈ 26.1 to 52.2 mM) | solubility ([1]; acetonitrile-water 9:1, organic solvent or mixture): > 32.4 mg/mL | solubility ([1]; ethyl acetate, organic solvent or mixture): 14.9 to 29.8 mg/mL (≈ 27.4 to 54.8 mM) | solubility ([1]; methanol, organic solvent or mixture): > 19.2 mg/mL | solubility ([1]; methanol-water 1:1, aqueous with cosolvent or surfactant or cyclodextrin): < 0.895 mg/mL | solubility ([1]; methanol-water 9:1, organic solvent or mixture): > 33.4 mg/mL | solubility in organic solvent ([1]; organic solvent, result in words): good solubility | solubility ([1]; pH 1.2 hydrochloric acid solution, pH 1.2, simulated gastric fluid): 8.45 to 16.9 mg/mL (≈ 15.5 to 31.1 mM) | hygroscopicity ([2]; DVS, result in words): non-hygroscopic | crystal form after DVS (XRPD) ([2]; XRPD before and after DVS): did not change | water absorption rate ([2]; from 0% RH to 95% RH, 25°C): 0.02% | degradation ([3]; alkali degradation: 0.1 NaOH at 40°C for 2 hour): only slight degradation | degradation ([3]; oxidative degradation: 3% H2O2 at 40°C for 1.5 hours): only slight degradation | change of content of the main component ([4]; 60°C / 75% RH): less than 0.2% | change of content of the main component ([4]; 60°C): less than 0.2% | crystal form change (XRPD) ([5]; 40°C / 75% RH): did not change its crystal form | crystal form change (XRPD) ([5]; 60°C / 75% RH): did not change its crystal form | photostability ([6]; ICH light conditions, result in words): photostable | change of content of the main component ([6]; solid powder, ICH light intensity conditions (>1.2*10^6 Lux*h, 200 w*hr/m^2)): less than 0.2% | crystal form after trituration (XRPD) [7]: all crystal form I | bioavailability [8]: high | exposure [8]: high | plasma concentration [8]: high | solubility at 24 h ([9]; aqueous buffer, thermodynamic from solid): 0.31 mg/mL (≈ 0.57 mM) | solubility [9]: 0.31 * mg/mL
